According to EP0281245B1, “Cytochrome P-450 enzymes” (Sankyo Company Limited, priority 1987, dated 1988):
Structures can show the parent of a compound that is named as a salt. Where two headings read alike, the source gives them in different places.

Experiments:
Test in all cases: Effect of potential inhibitors and metallic ions on rate of formation of pravastatin sodium from sodium ML-236B carboxylate (method ii)
[1] = system: P-450sca-3; format: biochemical, Streptomyces carbophilus
Procedure: (§1) (ii) Measurement of rate of formation of pravastatin sodium from sodium ML-236B carboxylate
(§2) The following cocktail of components is employed:
(§3) The components of the Table are mixed, the solution is shaken at 30°C for 5 minutes, and then 10 »l of 6 N NaOH is added and the reaction stopped. The amount of pravastatin sodium formed by the enzyme system is determined with HPLC.
(§4) The effects of potential inhibitors against cytochrome P-450sca-1 P-450sca-2, P-450sca-3 and the effects of metallic ions on the action of the cytochrome P-450 can be assessed quantitatively using the method (ii).

[2] = system: cytochrome P-450sca-1; format: biochemical, Streptomyces carbophilus; conditions: for Residual activity of enzyme P-450sca-1: 5 min; for inhibition of cytochrome (in words): each cytochrome
Procedure: as §2, §3, §4

[3] = biological target: T1, P-450sca-2 (Streptomyces carbophilus, UniProt Q59831); format: biochemical; conditions: for remaining activity at 2000 µM: read-out: Residual activity of enzyme P-450sca-2
T1 construct: made in house; host or cells: Streptomyces carbophilus SANK 62585 (FERM BP-1145), native producer, not recombinant
T1 sequence (Q59831 1-410): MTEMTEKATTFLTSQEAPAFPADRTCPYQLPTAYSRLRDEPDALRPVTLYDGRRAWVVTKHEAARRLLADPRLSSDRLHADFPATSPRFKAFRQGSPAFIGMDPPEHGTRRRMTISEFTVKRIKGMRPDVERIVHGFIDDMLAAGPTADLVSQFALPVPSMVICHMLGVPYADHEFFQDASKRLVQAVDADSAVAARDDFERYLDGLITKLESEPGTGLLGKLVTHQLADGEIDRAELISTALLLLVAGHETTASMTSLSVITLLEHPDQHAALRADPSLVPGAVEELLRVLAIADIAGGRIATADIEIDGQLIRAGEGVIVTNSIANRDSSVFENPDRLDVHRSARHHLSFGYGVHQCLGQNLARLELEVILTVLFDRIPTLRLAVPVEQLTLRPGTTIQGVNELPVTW
Procedure: as §1, §2, §3, §4

| Structure (SMILES) | Residual activity of enzyme P-450sca-3 ([1]; 1 mM added compound) [%] | inhibition of cytochrome (in words) ([1]; each cytochrome) | Residual activity of enzyme P-450sca-1 ([2]; 1 mM added compound) [%] | inhibition of cytochrome (in words) [2] | Residual activity of enzyme P-450sca-2 ([3]; 1 mM added compound) [%] | inhibition of cytochrome (in words) ([3]; each cytochrome) | further results |
| --- | --- | --- | --- | --- | --- | --- | --- |
| [Cl][Cu][Cl] [CuCl₂] | 0 | inhibited | 0 | inhibited | 0 | inhibited | – |
| [Ca+2].[Cl-].[Cl-] [CaCl₂] | 100.0 | – | 100.0 | – | 100.0 | – | – |
| [Cl-].[Cl-].[Co+2] [CoCl₂] | 60.1 | inhibited | 65.0 | inhibited | 67.5 | inhibited | – |
| [C-]#[O+] [CO, carbon monoxide] | – | inhibited | – | inhibited | – | inhibited | Residual activity of enzyme P-450sca-3 ([1]; CO bubbled in for 1 minute): 60.4%; Residual activity of enzyme P-450sca-1 ([2]; CO bubbled in for 1 minute): 50.0%; Residual activity of enzyme P-450sca-2 ([3]; CO bubbled in for 1 minute): 55.0% |
| [Cl][Mn][Cl] [MnCl₂] | 17.5 | inhibited | 20.0 | inhibited | 18.7 | inhibited | – |
| CN/C(=N/CCSCc1nc[nH]c1C)NC#N [Cimetidine] | – | – | – | inhibited | – | – | inhibition of cytochrome (in words) [1]: inhibited; Residual activity of enzyme P-450sca-3 ([1]; 2000 µM): 43.8%; Residual activity of enzyme P-450sca-1 ([2]; 2 mM added compound): 58.7%; inhibition of cytochrome (in words) [3]: inhibited; remaining activity at 2000 µM [3]: 45.7% |
| CCCC(C(=O)OCCN(CC)CC)(c1ccccc1)c1ccccc1 [SKF-525A, 2-diethylaminoethyl-2,2-diphenyl valerate hydrochloride] | – | inhibited | – | inhibited | – | inhibited | Residual activity of enzyme P-450sca-3 ([1]; 2 mM added compound): 24.1%; Residual activity of enzyme P-450sca-1 ([2]; 2 mM added compound): 25.8%; remaining activity at 2000 µM ([3]; 2 mM added compound): 22.8% |
